Experimental data taken from US9717719B2, “Treatment, prevention, and reversal of alcohol-induced liver disease” (Rhode Island Hospital, priority 2006, dated 2017).
Entries after “also recorded” stand apart in the source; their conditions may differ.

What was measured:
Format in all cases: in vivo, rat
[1] = tested on: liver mRNA levels of albumin, ASBT, GFAP, KCR, desmin, and collagen; assay: Liver cell profiling by qRT-PCR; details: for GFAP mRNA / collagen mRNA / desmin mRNA / ASBT mRNA / albumin mRNA: relative to vehicle
From the text: Adult male (˜200-250 g) Long Evans rats (Harlan Sprague Dawley, Inc., Indianapolis, Ind.) were pair-fed with isocaloric liquid diets (BioServ, Frenchtown, N.J.) containing 0% (control) or 37% ethanol by caloric content (9.2% v/v) for 8 weeks. During the week prior to initiating the experiment, rats were adapted to the ethanol-containing diets by sequentially feeding them for two days each with diets containing 8%, 17%, 24%, and then 37% ethanol. Chow fed control rats were also studied. Rats were monitored daily to ensure equivalent food consumption and maintenance of body weight. During the last 3 weeks of the experiment while being maintained on either the 0% or 37% ethanol-containing liquid diets, rats in both groups were administered twice weekly (Mondays and Thursdays) intra-peritoneal (i.p.) injections of vehicle (saline), a PPAR-α (GW7647; 25 μg/kg), PPAR δ (L-165,041; 2 μg/kg), or PPAR-γ (F-L-Leu; 20 μg/kg) agonist (CalBiochem, Carlsbad, Calif.). At the conclusion of the experiment, rats were anesthetized with vaporized isofluorane (SurgiVet, Inc. Waukesha, Wis.), and liver and blood were harvested for analysis. Liver tissue samples were immersion fixed in Histochoice (Amresco Corp., Solon, Ohio) and embedded in paraffin. Adjacent histological sections were stained with Hematoxylin and Eosin or Gomori's Trichrome and examined under code. In addition, liver tissue samples were snap-frozen in a dry ice methanol bath and then stored at −80° C. for later mRNA and protein studies. Throughout the experiment, rats were housed under humane conditions and kept on a 12-hour light/dark cycle with free access to food. All experiments were performed in accordance with protocols that conform to guidelines established by the National Institutes of Health and were approved by Institutional Animal Care and Use Committee at the Lifespan-Rhode Island Hospital.
(§1) Total RNA was extracted from liver tissue using TRIzol® reagent (Invitrogen, Carlsbad, Calif.) according to the manufacturer's protocol. RNA concentrations and purity were determined from the absorbances measured at 260 nm and 280 nm. RNA (2 μg) was reverse transcribed using the AMV First Strand cDNA synthesis kit (Roche Diagnostics Corporation, Indianapolis, Ind.) and random oligodeoxynucleotide primers. Quantitative reverse transcriptase polymerase chain reaction (qRT-PCR) assays were used to measure steady-state levels of specific mRNA transcripts. PCR amplifications were performed in 20 μl reactions containing cDNA generated from 2.5 ng of original RNA template, 300 nM each of gene specific forward and reverse primer (Table 2), and 10 μl of 2× QuantiTect SYBR Green PCR Mix (Qiagen Inc, Valencia, Calif.). The amplified signals were detected continuously with the Mastercycler ep realplex instrument and software (Eppendorf AG, Hamburg, Germany). The amplification protocol used was as follows: initial 15-minutes denaturation and enzyme activation at 95° C., 45 cycles of 95° C.×15 sec, 55°-60° C.×30 sec, and 72° C.×30 sec. Annealing temperatures were optimized using the temperature gradient program provided with the Mastercycler ep realplex software.
In preliminary studies, SYBR Green-labeled PCR products were evaluated by agarose gel electrophoresis, and authenticity was verified by nucleic acid sequencing. Complementary (c) DNAs were cloned into PCR-II vectors (Invitrogen, Carlsbad, Calif.). […] Serial dilutions of recombinant plasmid DNA containing target sequences were used as standards in PCR reactions, and regression lines generated from the Ct values of the standards were used to calculate mRNA abundance. Relative mRNA expression was expressed as the ng ratio of specific mRNA to ribosomal (r) 18S measured in the same samples because 18S is highly abundant and the levels are not modulated with disease state. Statistical comparisons were made using the calculated mRNA/18S ratios. […]

AAH and GAPDH = assay: ELISA of AAH and GAPDH immunoreactivity in liver
From the text: (§2) Chow fed control rats were also studied. Rats were monitored daily to ensure equivalent food consumption and maintenance of body weight. […] At the conclusion of the experiment, rats were anesthetized with vaporized isofluorane (SurgiVet, Inc. Waukesha, Wis.), and liver and blood were harvested for analysis. Liver tissue samples were immersion fixed in Histochoice (Amresco Corp., Solon, Ohio) and embedded in paraffin. Adjacent histological sections were stained with Hematoxylin and Eosin or Gomori's Trichrome and examined under code. In addition, liver tissue samples were snap-frozen in a dry ice methanol bath and then stored at −80° C. for later mRNA and protein studies. Throughout the experiment, rats were housed under humane conditions and kept on a 12-hour light/dark cycle with free access to food. All experiments were performed in accordance with protocols that conform to guidelines established by the National Institutes of Health and were approved by Institutional Animal Care and Use Committee at the Lifespan-Rhode Island Hospital.
ELISAs were used to measure immunoreactivity corresponding to AAH, GAPDH and β-actin (negative control). ELISAs were performed in 96-well opaque polystyrene plates (Nalge Nunc International, Rochester, N.Y.). RIPA protein extracts diluted in TBS (40 ng/100 μl) were adsorbed to the bottoms of the wells by overnight incubation at 4° C. After rinsing in TBS, the wells were blocked for 4 hours with 250 μl/well of 2% BSA in TBS. The proteins were then incubated with primary antibody (0.01-0.1 μg/ml) for 1 hour at room temperature. Immunoreactivity was detected with HRP-conjugated secondary antibody (1:10000; Pierce) and the Amplex Red soluble fluorophore (Molecular Probes). […] Binding specificity was determined from parallel negative control incubations with non-relevant antibodies, or with the primary or secondary antibody omitted. The mean levels of specific AAH, GAPDH, and β-actin immunoreactivity were used for inter-group statistical comparisons.

[2] = tested on: insulin, IGF-I, IGF-II, their receptors, IRS-1, IRS-2, IRS-4 mRNA in liver; assay: qRT-PCR of hepatic insulin and IGF polypeptides, their receptors, and IRS molecules; details: relative to vehicle; for IGF-II mRNA: chronic ethanol feeding; for IGF-I mRNA: control rats
From the text: as §2, §1
Complementary (c) DNAs were cloned into PCR-II vectors (Invitrogen, Carlsbad, Calif.). […] Serial dilutions of recombinant plasmid DNA containing target sequences were used as standards in PCR reactions, and regression lines generated from the Ct values of the standards were used to calculate mRNA abundance. Relative mRNA expression was expressed as the ng ratio of specific mRNA to ribosomal (r) 18S measured in the same samples because 18S is highly abundant and the levels are not modulated with disease state. Statistical comparisons were made using the calculated mRNA/18S ratios.

[3] = control livers, relative to vehicle (not statistically significant)
[4] = ethanol-exposed livers, relative to vehicle (statistically significant)

Row | Structure (SMILES) | KCR mRNA [1, 3] | collagen mRNA ([1]; controls) | desmin mRNA ([1]; ethanol-exposed livers) | KCR mRNA [1, 4] | GFAP mRNA ([1]; ethanol-exposed rats) | ASBT mRNA ([1]; ethanol-fed rats) | albumin mRNA ([1]; ethanol-fed rats) | collagen mRNA ([1]; ethanol-fed rats) | AAH expression (ELISA) (AAH and GAPDH; control livers) | GAPDH expression (ELISA) (AAH and GAPDH; ethanol-exposed livers) | insulin gene expression ([2]; ethanol-exposed group) | desmin mRNA ([1]; control group) | ASBT mRNA ([1]; control livers) | albumin mRNA ([1]; control livers) | IGF-II mRNA [2] | insulin gene expression ([2]; control group) | IGF-I mRNA [2] | also measured
1 | CC(C)(Sc1ccc(CCN(CCCCC2CCCCC2)C(=O)NC2CCCCC2)cc1)C(=O)O [PPAR-α, GW7647] | increased | increased | no significant effect | increased | significantly increased | significantly increased; also recorded: normalized | significantly increased; also recorded: normalized | further increased | no significant effect | no significant effect | reduced |  |  |  |  |  |  | GFAP mRNA ([1]; control rats): significantly increased; GAPDH expression (ELISA) (AAH and GAPDH; control livers): no significant effect; AAH expression (ELISA) (AAH and GAPDH; ethanol-exposed livers): no significant effect
2 | CCCc1c(OCCCOc2ccc(OCC(=O)O)cc2)ccc(C(C)=O)c1O [PPAR-δ, L-165,041] | increased | increased | no significant effect | increased |  | did not significantly alter; also recorded: normalized | significantly increased; also recorded: normalized | significantly reduced | slightly reduced | significantly increased | reduced | significantly reduced | decreased | significantly increased | significantly reduced | significantly increased | significantly increased | IRS-2 mRNA ([2]; control group): significantly increased; insulin receptor mRNA ([2]; controls): increased; IRS-4 mRNA ([2]; ethanol-exposed group): significantly reduced; insulin receptor mRNA ([2]; ethanol-fed rat livers): significantly reduced; IRS-1 mRNA ([2]; ethanol-fed rats): significantly reduced
3 | CC(C)C[C@H](NC(=O)OCC1c2ccccc2-c2ccccc21)C(=O)O [PPAR-γ, F-L-Leu] | increased |  | significantly increased | increased | significantly increased | did not significantly alter | did not significantly alter | significantly reduced | slightly reduced | significantly increased |  | significantly reduced | decreased | significantly increased | significantly reduced | significantly increased | significantly increased | IRS-2 mRNA ([2]; ethanol-exposed rats): significantly reduced
